Assays:
Assay type in all cases: in vivo
Anthonomus grandis = experiment: Boll weevil (Anthonomus grandis), eggs on insect diet in microtiter plates; conditions: 120 h, test solution 2500 mg/L, 20 μl sprayed onto diet, 5 days, read-out: mortality (egg and larval)
Experimental: II.6 Boll Weevil (Anthonomus grandis)
The compounds were formulated in 75:25 (vol:vol) water:DMSO.
For evaluating control of boll weevil (Anthonomus grandis) the test unit consisted of 24-well-microtiter plates containing an insect diet and 20-30 A. grandis eggs. Different concentrations of formulated compounds were sprayed onto the insect diet at 20 μl, using a custom built micro atomizer, at two replications. After application, the microtiter plates were incubated at 23±1° C. and 50±5% relative humidity for 5 days. Egg and larval mortality was then visually assessed.

Aphis craccivora = experiment: Cowpea aphid (Aphis craccivora), spray on potted cowpea plants; conditions: sprayed, population reduction assessed after 24, 72 and 120 hours, read-out: mortality in comparison with untreated controls
Experimental: II.3 Cowpea Aphid (Aphis craccivora)
The active compounds were formulated in 50:50 (vol:vol) acetone:water. The test solution was prepared at the day of use.
Potted cowpea plants colonized with 100-150 aphids of various stages were sprayed after the pest population had been recorded. Population reduction was assesed after 24, 72, and 120 hours.

Myzus persicae [1] = experiment: Green peach aphid (Myzus persicae) through systemic means, artificial diet under membrane; conditions: 72 h, pipetted into aphid diet, 3 days, read-out: mortality in comparison with untreated controls
From the text: II.9 Activity Against Green Peach Aphid (Myzus persicae)
For evaluating control of green peach aphid (Myzus persicae) through systemic means the test unit consisted of 96-well-microtiter plates containing liquid artificial diet under an artificial membrane.
The compounds were formulated using a solution containing 75% v/v water and 25% v/v DMSO. Different concentrations of formulated compounds were pipetted into the aphid diet, using a custom built pipetter, at two replications. After application, 5 to 8 adult aphids were placed on the artificial membrane inside the microtiter plate wells The aphids were then allowed to suck on the treated aphid diet and incubated at about 23+1° C. and about 50+5% relative humidity for 3 days. Aphid mortality and fecundity was then visually assessed.

Megoura viciae = experiment: Vetch aphid (Megoura viciae), bean leaf disks in microtiterplates; conditions: foliar, 144 h, test solution 2500 mg/L, leaf disks sprayed with 2.5 μl, 6 days
Experimental: II.5 Vetch Aphid (Megoura viciae)
The active compounds were formulated in 1:3 (vol:vol) DMSO:water with different concentrations of formulated compounds.
Bean leaf disks were placed into microtiterplates filled with 0.8% agar-agar and 2.5 ppm OPUS™. The leaf disks were sprayed with 2.5 μl of the test solution and 5 to 8 adult aphids were placed into the microtiterplates which were then closed and kept at 23±1° C. and 50±5% relative humidity under fluorescent light for 6 days. Mortality was assessed on the basis of vital, reproduced aphids. Aphid mortality and fecundity was then visually assessed.

Myzus persicae [2] = experiment: Green peach aphid (Myzus persicae, mixed life stages), method b: electrostatic spray on bell pepper; conditions: 120 h, sprayed, after 5 days, read-out: mortality in comparison with untreated controls
Experimental: II.2 Green Peach Aphid (Myzus persicae, Mixed Life Stages)
(§1) The active compounds were formulated in cyclohexanone as a 10,0000 ppm solution supplied in 1.3 ml ABgene® tubes. These tubes were inserted into an automated electrostatic sprayer equipped with an atomizing nozzle and they served as stock solutions for which lower dilutions were made in 50% acetone:50% water (v/v). A nonionic surfactant (Kinetic®) was included in the solution at a volume of 0.01% (v/v).
Bell pepper plants at the first true-leaf stage were infested prior to treatment by placing heavily infested leaves from the main colony on top of the treatment plants. Aphids were allowed to transfer overnight to accomplish an infestation of 30-50 aphids per plant and the host leaves were removed. The infested plants were then sprayed by an automated electrostatic plant sprayer equipped with an atomizing spray nozzle. The plants were dried in the sprayer fume hood, removed, and then maintained in a growth room under fluorescent lighting in a 24-hr photoperiod at 25° C. and 20-40% relative humidity. Aphid mortality on the treated plants, relative to mortality on untreated control plants, was determined after 5 days.

Dichromothrips Corbetti = experiment: Vanda/orchid thrips (Dichromothrips corbetti), dipped orchid petals; conditions: after 72 hours, read-out: mortality in comparison with untreated controls
Experimental: II.11 Activity Against Vanda/Orchid Thrips (Dichromothrips Corbetti)
The active compounds were formulated as a 50:50 (vol:vol) acetone:water solution. Surfactant (Alkamuls EL 620) was added at the rate of 0.1% (vol/vol). Vanda orchids petals were cleaned, washed and air dried prior to spraying. Petals were dipped into the test solution for 3 seconds, air dried, placed inside a resealable plastic and inoculated with 20 adults. The treated petals were kept inside the holding room at 28-29° C. and relative humidity of 50-60%. Percent mortality was recorded after 72 hours.

Aphis gossypii = experiment: Cotton aphid (Aphis gossypii, mixed life stages), method b: electrostatic spray; conditions: 120 h, sprayed, after 5 days, read-out: mortality in comparison with untreated controls
Experimental: II.1 Cotton Aphid (Aphis gossypii, Mixed Life Stages)
as §1
Cotton plants at the cotyledon stage were infested with aphids prior to treatment by placing a heavily infested leaf from the main aphid colony on top of each cotyledon. Aphids were allowed to transfer overnight to accomplish an infestation of 80-100 aphids per plant and the host leaf was removed. The infested plants were then sprayed by an automated electrostatic plant sprayer equipped with an atomizing spray nozzle. The plants were dried in the sprayer fume hood, removed from the sprayer, and then maintained in a growth room under fluorescent lighting in a 24 hr photoperiod at 25° C. and 20-40% relative humidity. Aphid mortality on the treated plants, relative to mortality on untreated control plants, was determined after 5 days.

Q: With `Cc1c(C(=O)Nc2ccnnc2)cnn1CC(F)(F)F` [Compound 1, 5-Methyl-1-(2,2,2-trifluoroethyl)-1H-pyrazole-4-carboxylic acid pyridazin-4-ylamide] as the compound, how does the mortality at 2500 µg/mL (Anthonomus grandis) read?
A: ≥ 50%

Q: And the mortality at 300 ppm (Aphis craccivora)?
A: ≥ 90%

Q: And the mortality at 2500 ppm (Myzus persicae [1])?
A: 100%

Q: What about the mortality at 2500 µg/mL (Megoura viciae) of the same compound?
A: ≥ 90%

Q: What about the mortality at 300 ppm (Myzus persicae [2]) of the same compound?
A: ≥ 75%

Q: And the mortality at 500 ppm (Dichromothrips Corbetti)?
A: ≥ 50%

Q: And the mortality at 300 ppm (Aphis gossypii)?
A: ≥ 75%
